Experimental data: the NIST ThermoML archive (doi:10.1016/j.jct.2018.12.031)

Test: xn = mol fraction of the nth substance listed
Settings: 100 kPa, Liquid; for speed of sound: Frequency=3 MHz, Linear variable-path acoustic interferometer; for mass density: Pycnometric method

C=C(C)C(=O)OCC [ethyl 2-methylpropenoate] + N#Cc1ccccc1
Settings | mass density, 293.15 K [kg/m3] | mass density, 298.15 K [kg/m3] | mass density, 303.15 K [kg/m3] | speed of sound, 293.15 K [m/s] | speed of sound, 298.15 K [m/s] | speed of sound, 303.15 K [m/s]
x2 = 0 | 912.3 | 907.18 | 902.06 | 1196.8 | 1176.9 | 1157.6
x2 = 0.0711 | 918.32 | 913.3 | 908.28 | 1212.4 | 1193 | 1174.2
x2 = 0.1419 | 924.37 | 919.45 | 914.53 | 1228 | 1208.9 | 1190.4
x2 = 0.2152 | 930.7 | 925.88 | 921.06 | 1244.1 | 1225 | 1206.4
x2 = 0.2872 | 936.99 | 932.27 | 927.55 | 1259.8 | 1240.7 | 1222.1
x2 = 0.3568 | 943.14 | 938.52 | 933.89 | 1274.9 | 1255.7 | 1237.4
x2 = 0.4307 | 949.76 | 945.23 | 940.7 | 1290.9 | 1271.6 | 1253.4
x2 = 0.4991 | 955.96 | 951.53 | 947.1 | 1306 | 1286.8 | 1268.4
x2 = 0.5752 | 962.96 | 958.64 | 954.32 | 1323.3 | 1304.2 | 1285.8
x2 = 0.6431 | 969.29 | 965.07 | 960.85 | 1339.2 | 1320 | 1301.7
x2 = 0.7177 | 976.35 | 972.24 | 968.13 | 1357.7 | 1338.5 | 1320.4
x2 = 0.7773 | 982.06 | 978.04 | 974.02 | 1373 | 1354 | 1336
x2 = 0.8576 | 989.86 | 985.97 | 982.07 | 1394.7 | 1375.9 | 1358.2
x2 = 0.9289 | 996.89 | 993.11 | 989.33 | 1414.8 | 1396.3 | 1379.1
